The values below come from patent US10398783B2, “Antiproliferative compounds and conjugates made therefrom” (BRISTOL-MYERS SQUIBB COMPANY, priority 2016, dated 2019).

Holding throughout (assay type): cell-based, human
Assay [1] relates to mesothelioma (H226) cancer cell line. The assay can be described thus: 72 hr ATP luminescence cell proliferation inhibition assay, H226. How it is done:
(§1) Proliferation inhibition was measured using a 72 hr ATP luminescence assay (Cheng et al., U.S. Pat. No. 8,394,922 B2 (2013)). The antiproliferative effects are reported as IC50's, i.e., the concentration of compound that produces a 50% inhibitory effect on cell proliferation.

For assay [2], the system named is gastric (stomach) cancer (N87) cell line. Put plainly: 72 hr ATP luminescence cell proliferation inhibition assay, N87. Conditions: N87 cells. How it is done: as §1
Assay [3] deals with colon cancer (HCT116) cell line. The assay can be described thus: 72 hr ATP luminescence cell proliferation inhibition assay, HCT116. How it is done:
as §1

Assay [4] deals with ovarian cancer (OVCAR3) cell line. The assay can be described thus: 72 hr ATP luminescence cell proliferation inhibition assay, OVCAR3. How it is done: as §1

Broadly, the IC50 is the concentration at which inhibition is half-maximal.

For the compound `COc1cc2c(cc1OCCCC(=O)Nc1cc(C(=O)Nc3ccc4c(c3)oc3ccccc34)n(C)c1)N=C[C@@H]1Cc3ccccc3CN1C2=O` [(Ib-33)], the half-inhibitory concentration (IC50) is less than 0.004 nM in assay [1] (H226 cells), less than 0.004 nM in assay [2], less than 0.004 nM in assay [3] (HCT116 cells) and 0.052 nM in assay [4] (OVCAR3 cells).

With `COc1cc2c(cc1OCCCC(=O)Nc1cc(C(=O)Nc3ccc4c(c3)Cc3cc(N)ccc3-4)n(C)c1)N=C[C@@H]1Cc3ccccc3CN1C2=O` [(Ib-34)], the IC50 in assay [1] (H226 cells) is less than 0.004 nM; in assay [2], 0.006 nM; in assay [3] (HCT116 cells), less than 0.004 nM; in assay [4] (OVCAR3 cells), 0.025 nM.

On to `COc1ccc(NC(=O)c2cc(NC(=O)CCCOc3cc4c(cc3OC)C(=O)N3Cc5ccccc5C[C@H]3C=N4)cn2C)nc1` [(Ib-35)], for which the IC50 was less than 0.004 nM in assay [1] (H226 cells), less than 0.004 nM in assay [2], 0.047 nM in assay [3] (HCT116 cells) and 0.11 nM in assay [4] (OVCAR3 cells).

Consider `COc1cc2c(cc1OCCCC(=O)Nc1cc(C(=O)Nc3cccc(OCc4ccccc4)n3)n(C)c1)N=C[C@@H]1Cc3ccccc3CN1C2=O` [(Ib-36)], for which the IC50 in assay [1] (H226 cells) turned out to be 22 nM; in assay [2], 3.7 nM; in assay [3] (HCT116 cells), 3.7 nM; in assay [4] (OVCAR3 cells) it was 2.2 nM.

Regarding `COc1cc2c(cc1OCCCC(=O)Nc1cc(C(=O)Nc3cnc4c(c3)ncn4C)n(C)c1)N=C[C@@H]1Cc3ccccc3CN1C2=O` [(Ib-37)], the IC50 in assay [1] (H226 cells) was 1.2 nM; in assay [2] it was 1.6 nM; in assay [3] (HCT116 cells) it was 1.7 nM; in assay [4] (OVCAR3 cells) it was 5.2 nM.

As to `COC(=O)c1cc(NC(=O)CCCOc2cc3c(cc2OC)C(=O)N2Cc4ccccc4C[C@H]2C=N3)cn1C` [(Ib-38)], the IC50 is 1.1 nM in assay [1] (H226 cells), 1.1 nM in assay [2], 1.1 nM in assay [3] (HCT116 cells) and 0.66 nM in assay [4] (OVCAR3 cells).

On to `COC(=O)c1cc(-c2ccc(NC(=O)c3cc(NC(=O)CCCOc4cc5c(cc4OC)C(=O)N4Cc6ccccc6C[C@H]4C=N5)cn3C)cc2)cn1C` [(Ib-39)], for which the IC50 in assay [1] (H226 cells) was found to be 0.006 nM; in assay [2], 0.002 nM; in assay [3] (HCT116 cells), 0.003 nM; in assay [4] (OVCAR3 cells), 0.011 nM.

Turning to `COC(=O)c1cc(NC(=O)c2cc(NC(=O)CCCOc3cc4c(cc3OC)C(=O)N3Cc5ccccc5C[C@H]3C=N4)cn2C)cn1C` [(Ib-40)], the IC50 in assay [1] (H226 cells) is 0.1 nM; in assay [2] it was 0.09 nM; in assay [3] (HCT116 cells), 0.028 nM; in assay [4] (OVCAR3 cells), 0.16 nM.

In the case of `COc1cc2c(cc1OCCCC(=O)Nc1cc(C(=O)Nc3ccccc3)n(C)c1)N=C[C@@H]1Cc3ccccc3CN1C2=O` [(Ib-41)], the IC50 amounted to 0.083 nM in assay [1] (H226 cells), 0.038 nM in assay [2], 0.022 nM in assay [3] (HCT116 cells) and 0.053 nM in assay [4] (OVCAR3 cells).

`COc1cc2c(cc1OCCCC(=O)Nc1cc(C(=O)NC3CC3)n(C)c1)N=C[C@@H]1Cc3ccccc3CN1C2=O` [(Ib-42)]: the IC50 in assay [1] (H226 cells) came to 0.49 nM; in assay [2], 0.39 nM; in assay [3] (HCT116 cells) it was 0.38 nM; in assay [4] (OVCAR3 cells), 0.32 nM.

With `COc1cc2c(cc1OCCCC(=O)Nc1cc(C(=O)Nc3ccc(-c4ccccc4)cc3)n(C)c1)N=C[C@@H]1Cc3ccccc3CN1C2=O` [(Ib-43)], the IC50 in assay [1] (H226 cells) came to 0.013 nM; in assay [2], 0.026 nM; in assay [3] (HCT116 cells), 0.008 nM; in assay [4] (OVCAR3 cells) it was 0.025 nM.

Regarding `COc1cc2c(cc1OCCCC(=O)Nc1cc(C(=O)Nc3ccccn3)n(C)c1)N=C[C@@H]1Cc3ccccc3CN1C2=O` [(Ib-44)], the IC50 in assay [1] (H226 cells) came out at 0.085 nM; in assay [2] it was 0.055 nM; in assay [3] (HCT116 cells), 0.045 nM; in assay [4] (OVCAR3 cells) it was 0.053 nM.

In the case of `COc1cc2c(cc1OCCCC(=O)Nc1cc(C(=O)Nc3ccc(Cl)cn3)n(C)c1)N=C[C@@H]1Cc3ccccc3CN1C2=O` [(Ib-45)], the 50% inhibitory concentration (IC50) in assay [1] (H226 cells) is 0.085 nM; in assay [2], 0.025 nM; in assay [3] (HCT116 cells) it was 0.032 nM; in assay [4] (OVCAR3 cells), 0.01 nM.

Consider `COc1cc2c(cc1OCCCC(=O)Nc1cc(C(=O)Nc3cccnc3)n(C)c1)N=C[C@@H]1Cc3ccccc3CN1C2=O` [(Ib-46)], for which the IC50 in assay [1] (H226 cells) came out at 0.27 nM; in assay [2], 0.12 nM; in assay [3] (HCT116 cells), 0.13 nM; in assay [4] (OVCAR3 cells), 0.55 nM.

As to `COc1cc2c(cc1OCCCC(=O)Nc1cc(C(=O)Nc3ccc(Cl)nc3)n(C)c1)N=C[C@@H]1Cc3ccccc3CN1C2=O` [(Ib-47)], the IC50 in assay [1] (H226 cells) amounted to 0.13 nM; in assay [2], 0.022 nM; in assay [3] (HCT116 cells), 0.019 nM; in assay [4] (OVCAR3 cells), 0.13 nM.

`COc1cc2c(cc1OCCCC(=O)Nc1cn(C)c(C(=O)Nc3ccccc3)n1)N=C[C@@H]1Cc3ccccc3CN1C2=O` [(Ib-48)]: the IC50 amounted to 0.18 nM in assay [1] (H226 cells), 0.075 nM in assay [2], 0.039 nM in assay [3] (HCT116 cells) and 0.094 nM in assay [4] (OVCAR3 cells).

Turning to `COc1cc2c(cc1OCCCC(=O)Nc1cc(C(=O)Nc3ccc(-c4cc(-c5ncco5)n(C)c4)cc3)n(C)c1)N=C[C@@H]1Cc3ccccc3CN1C2=O` [(Ib-49)], the IC50 in assay [1] (H226 cells) was determined as 0.062 nM; in assay [2], 0.16 nM; in assay [3] (HCT116 cells) it was 0.051 nM; in assay [4] (OVCAR3 cells), 0.32 nM.

In the case of `COc1cc2c(cc1OCCCC(=O)Nc1cc(C(=O)Nc3ccc(OCc4ccccc4)cc3)n(C)c1)N=C[C@@H]1Cc3ccccc3CN1C2=O` [(Ib-51)], the IC50 in assay [1] (H226 cells) came out at 0.11 nM; in assay [2] it was 0.037 nM; in assay [3] (HCT116 cells), 0.022 nM; in assay [4] (OVCAR3 cells) it was 0.7 nM.

On to `COc1cc2c(cc1OCCCC(=O)Nc1cc(C(=O)Nc3ccc(N)cc3)n(C)c1)N=C[C@@H]1Cc3ccccc3CN1C2=O` [(Ib-52)], for which the IC50 in assay [1] (H226 cells) was 0.3 nM; in assay [2], 0.45 nM; in assay [3] (HCT116 cells) it was 0.28 nM; in assay [4] (OVCAR3 cells) it was 0.63 nM.

For `COc1cc(-c2ccc(NC(=O)c3cc(NC(=O)CCCOc4cc5c(cc4OC)C(=O)N4Cc6ccccc6C[C@H]4C=N5)cn3C)c(OC)c2)ccc1N` [(Ib-53)], the IC50 turned out to be 0.13 nM in assay [1] (H226 cells), 0.092 nM in assay [2], 0.098 nM in assay [3] (HCT116 cells) and 0.22 nM in assay [4] (OVCAR3 cells).

Turning to `COc1cc2c(cc1OCCCC(=O)Nc1cc(C(=O)Nc3ccc(-c4ccc(N)cc4)cc3)n(C)c1)N=C[C@@H]1Cc3ccccc3CN1C2=O` [(Ib-54)], the 50% inhibitory concentration (IC50) in assay [1] (Homo sapiens, NCI-H226, H226 cells) is 0.05 nM; in assay [2] (Homo sapiens), 0.027 nM; in assay [3] (Homo sapiens, HCT-116, HCT116 cells), 0.007 nM; in assay [4] (Homo sapiens, OVCAR-3, OVCAR3 cells), 0.071 nM.

Turning to `COC(=O)c1cc(-c2ccc(NC(=O)c3nc(NC(=O)CCCOc4cc5c(cc4OC)C(=O)N4Cc6ccccc6C[C@H]4C=N5)cn3C)cc2)cn1C` [(Ib-55)], the IC50 was 0.018 nM in assay [1] (H226 cells), less than 0.004 nM in assay [2], 0.004 nM in assay [3] (HCT116 cells) and 0.045 nM in assay [4] (OVCAR3 cells).
